Measured values: US20100166789A1, “PROTEINS FOR USE IN DIAGNOSING AND TREATING INFECTION AND DISEASE” (The Regents of the University of Colorado, priority 2008, published 2010)
No end group written: not given here. *: point of attachment. Biotin = O=C1N[C@H]2[C@H](CS[C@H]2CCCCC(=O)*)N1

Key:
[1] = tested on: cell surface bound CLIP on Raji and Daudi cells; assay: Competition of synthetic peptides with cell surface CLIP (Fitc anti-human CLIP); assay type: cell-based; settings: biotinylated peptides
Description: Based on a computational model comparing the peptide content of TNP mixture and identifying those peptides that would have the likeliest ability to compete for the peptide/antigen binding site for MHC class II (human HLA-DR, DP, and DQ), several peptide candidates were synthesized and examined for activity. The purpose of the study was to determine if synthetic peptides can compete for binding with CLIP peptides as measured with either Fitc anti-human CLIP antibody or, comparatively in the case of biotinylated peptides, with Streptavidin.
Cell Culture Conditions: The Raji and Daudi cell lines were purchased from American Type Culture Collection, were thawed, and grown in RPMI 1640 medium supplemented with standard supplements, including 10% fetal calf serum, gentamycin, penicillin, streptomycin, sodium pyruvate, HEPES buffer, 1-glutamine, and 2-ME.
Protocol: Cells were plated into a 12 well plate with 3 mls total volume containing approximately 1.5×10^6/well for Daudi cells and 3.0×10^6/well for Raji cells. Treatment groups included no treatment as control; MKN 3 and MKN 5 at 50 microMolar final concentration based on the reported molarity of the synthesized compounds.
The cells were incubated at 37° C. in an atmosphere containing 5% CO2 and approximately 92% humidity. The cells were incubated for 4 and 24 hours. At each time point, the cells from that experimental time were harvested and stained for flow cytometric analysis of cell surface expression of CLIP (MHC Class II invariant peptide, human) by using the commercially available (Becton/Dickinson/PHarmingen) anti-human CLIP Fitc. Catalogue #555981 versus Streptavidin.
Harvested cells were stained using standard staining procedure that called for a 1:100 dilution of Fitc-anti-human CLIP or isotype control versus 1:200 dilution of the commercially prepared Streptavidin. Following staining on ice for 25 minutes, cells were washed with PBS/FCS and resuspended in 100 microliters and added to staining tubes containing 400 microliters of PBS. Samples were acquired and analyzed on a Coulter Excel Flow Cytometer.
In the Histogram analyses of FIGS. 4-6 the Y axis represents cell number of the 5000 live cells versus the X axis which is a reflection of relative Fitc fluorescence versus Streptavidin-PE (eBioscience, Cat. #12-4317) that will bind with high affinity to cell-bound biotinylated peptides. The distance between the histogram from the isotype control staining versus the histogram reflecting the specific stain and is a measure of level of cell surface CLIP or the biotinylated peptide when stained with Streptavidin on a population of live Raji or Daudi cells as indicated.

[2] = biological target: gp41 HIV-1 envelope protein (gp41 fragment) of Example 14 (HIV-1); assay: native gel electrophoresis, quantitative analysis
[3] = tested on: cell surface CLIP on Raji or Daudi cells; settings: 24 and 48 hours; cited from earlier work
[4] = tested on: cell surface CD74 on Raji or Daudi cells; settings: 24 and 48 hours; cited from earlier work

| Substance | Cell surface bound CLIP (Fitc-Anti-CLIP) ([1]; 4 hours) | Cell surface bound CLIP (Fitc-Anti-CLIP) ([1]; 24 hours) | binding stoichiometry (TNP to gp41) (gp41 per 1 TNP (ratio 1:0.8)) [2] | Cell surface CLIP levels [3] | Cell surface CD74 levels [4] |
| --- | --- | --- | --- | --- | --- |
| FRIMAVLAS [SGG GAN SGF RIM AVL ASG GQY, unmodified form is MKN.4] | small decreases | significant decreases | – | – | – |
| thymus nuclear protein (TNP) extract from calf thymus | – | – | 0.8 | – | – |
| SGG GKA LVQ NDT LLQ VKG (Biotin-SGGGKALVQNDTLLQVKG) [TNP1] | small decreases | significant decreases | – | – | – |
| SGG GSK MRM ATP LLM QAL Y [MKN1] | – | – | – | alters | alters |
